From US20160235677A1, “METHOD OF CONVERTING A CRYSTALLINE COMPOUND TO AN AMORPHOUS COMPOUND, METHOD OF INCREASING THE SOLUBILITY OF A CRYSTALLINE COMPOUND IN A BIORELEVANT FLUID, AND NANOPARTICLES THAT ACHIEVE SUPERSATURATION” (Nanocopoeia, LLC., priority 2014, published 2016)
Converted amounts (≈) assume the structure as drawn. Structures can show the parent of a compound that is named as a salt. Where two headings read alike, the source gives them in different places.

How the values were obtained:
[1] = XRD and DSC determinations of physical state of ENS-processed powders (Table B); assay type: physicochemical
Procedure: Thermal analysis is conducted using a TA Instruments Model Q200 DSC (New Castle, Del.) equipped with an RCS-90 refrigerated cooling system. Samples, in an amount of 3.5 mg±1.0 mg, are weighed into TA Instruments T-Zero aluminum pans and closed with lids. […] Nitrogen is used as the purge gas at a flow rate of 50 mL/min. All data analyses are performed using TA Universal Analysis 2000 software (TA Instruments, New Castle, Del.). T-Zero cell constant and temperature/enthalpy calibrations are conducted with the use of sapphire and indium standards, respectively.
X-ray powder diffraction is performed at room temperature using a Bruker D8 Discover using a Cu Kα radiation, point source filtered with a graphite monochromator and a Bruker Hi-Star two-dimensional x-ray detector (Bruker, Karlsruhe, Germany). Powder samples are pressed onto a sample holder made of single-crystal quartz cut off-axis. The reflected intensity is collected at 0.04° resolution from 2Θ=2° to 62° with an acquisition time of 20 minutes. Data analysis is performed using the JADE 8.0 software package (Materials Data Inc., Livermore, Calif.) with whole pattern fitting. The test method has a detection limit of 2% crystallinity.
A series of crystalline drug and polymer combinations were dissolved in solvents in the amounts and at the ratios set forth in Table B. The solutions were then sprayed using the ENS system described above. The resulting dry compounds were collected and analyzed according to the XRD, DSC and SEM test methods.

Caco-2 monolayers = test: Caco-2 Monolayer Test Method; assay type: in vitro ADME; conditions: Caco-2, FIGS. 8A and 8B, result in words
Procedure: Caco-2 monolayers are prepared in Millipore 96-cell Caco-2 plates and are used after a 3-week differentiation period. The monolayers separate the apical, or donor well, from the basolateral, or recipient well. The buffer used for the apical side is 1.98 g/L glucose in 10 mM HEPES, Hank's Balanced Salt Solution (HBSS) lx, with calcium, magnesium, without phenol red (HyClone, Logan, Utah) pH 7.4. The impermeable dye Lucifer yellow (in an amount of 100 μM) is added to test monolayer integrity. The basolateral side buffer is buffer, pH 7.4, without dye. […] The amount of test powder is selected to assure that if the powder was completely dissolved, the amount is sufficient to achieve ˜12 to 13 times the saturation concentration of the compound of interest previously measured in HBSS (15 μg/mL), in other words, a supersaturated solution. […] Where the compound of interest is not a substrate for p-glycoprotein (pGP), B→A efflux is not measured.
Buffer test samples are added to apical wells at 1 h after preparation and buffer alone is added to the basolateral side. […] The plates are assumed to be intact if there is no increase in fluorescence from leaking Lucifer yellow dye from the apical side. Individual cell monolayers are assumed intact if there is no increase in fluorescence in aliquots taken from the basolateral wells. […]

[2] = Differential Scanning Calorimetry (DSC) crystallinity / physical state; assay type: physicochemical; conditions: griseofulvin formulations
Procedure: Controls and Examples were tested according to the DSC test method.

[3] = Dissolution in Buffer Media with pH Transition (itraconazole); assay type: physicochemical
Procedure: (§1) Dissolution testing, based on pH change from acidic-to-neutral media, is performed according to USP 29 Apparatus 2 Guidelines (United States Pharmacopeial Convention. Chapter <711> Dissolution, Stage 6 Harmonization, Official Dec. 1, 2011. USP website: http://www.usp.org/sites/default/files/usp_pdf/EN/USPNF/2011-02-25711DISSOLUTION.pdf).
Where specified below, the USP method was modified to use smaller 100 mL glass vessels with matching sized paddles operated at a speed of 100 rpm in buffer media using a VanKel 7000 Dissolution Tester (VanKel Technology Group, Gary, N.C.).
Examples A2, A3, A5 and A6 and Controls A1-A6 were tested according to the Dissolution in Buffer Media with pH Transition Test method. […] The solution was left stirring for 120 minutes, after which 3 mL aliquots were drawn from each vessel. Immediately after the aliquots were removed from the vessels, 25 mL of 0.2 M tribasic sodium phosphate buffer was added to each vessel to produce in a dissolution media having a pH 6.8±0.05. Subsequently, 3 mL aliquots were drawn from each vessel after 135 min, 150 min, 180 min, 210 min, 240 min, and 300 min. The aliquots were then analyzed to determine the concentration of itraconazole present in the media. The results were recorded in μg/mL.
Since only one sample was collected before the pH transition, the AUC, Tmax and Cmax were calculated based on the results following pH transition.

[4] = Dissolution in Biorelevant Media with pH Transition (itraconazole, FaSSGF to FaSSIF); assay type: physicochemical
Procedure: as §1
Where specified below, the USP method was modified to use smaller 100 mL glass vessels with matching sized paddles operated at a […] speed of 100 rpm in biorelevant media using a VanKel 7000 Dissolution Tester (VanKel Technology Group, Gary, N.C.).
Biorelevant media is prepared using FaSSIF, FeSSIF & FaSSGF Powder (biorelevant.com) a commercial source of sodium taurocholate and lecithin, hereafter abbreviated “SIF Powder.” Fasted state simulated gastric fluid (FaSSGF) and Fasted state simulated intestinal fluid (FaSSIF) are prepared using the formula provided by the vendor at http://biorelevant.com/fassif-fessif-fassgf-dissolution-media/fasted-fed-state-simulated-intestinal-gastric-fluid/how-to-make/, after specifying the desired volume quantity of medium to be prepared. For example, for 500 mL of FaSSGF, the test medium contains sodium chloride, 1 g, and SIF Powder, 30 mg. Solids are dissolved in approximately 480 mL deionized water. The FaSSGF solution is adjusted to a final pH of 1.6 using concentrated hydrochloric acid, and brought to a final volume of 500 mL by adding deionized water.
For two-stage dissolution testing, which consists of a gastric stage followed by an intestinal phase, the compound of interest is first added to a volume of FaSSGF that is equivalent to ¾ of the final test volume. For example, if the test vessel is 100 mL, the volume of FaSSGF is 75 mL. After allowing dissolution to proceed for 2 hours or another specified time interval, 25 mL of a Transition Medium is added to create a final volume of 100 mL in this example, with a final pH of 6.5. The final medium is equivalent in composition to FaSSIF, as per the formula provided at the above link at biorelevant.com.
The Transition Medium is prepared first by making Transition Buffer, 500 mL, which contains sodium chloride, 9.37 g, sodium hydroxide, 2.5 g, sodium phosphate monobasic dihydrate, 8.94 g. […] Larger quantities are prepared as required, maintaining the relative amounts each of Transition Buffer and SIF Powder.
The dissolution test is performed by weighing the test formulation containing the test compound, adjusting weights to achieve an equivalent amount of test compound across the various test formulations. […] Starting time for the dissolution test is recorded with the addition of the first drop. […]

[5] = oral, taken immediately after a full meal or with an acidic beverage; cited from earlier work
[6] = itraconazole, assumed value; cited from earlier work
[7] = itraconazole, cited from earlier work
[8] = itraconazole; cited from earlier work
[9] = Equilibrium / saturation solubility in test media; assay type: physicochemical; conditions: ITZ, experimentally determined
[10] = after pH transition to FaSSIF pH 6.5±0.05

With `C[C@@H](O[C@H]1OCCN(Cc2n[nH]c(=O)[nH]2)[C@H]1c1ccc(F)cc1)c1cc(C(F)(F)F)cc(C(F)(F)F)c1` [Aprepitant] the “XRD and DSC determinations of physical state (amorphous or crystalline)” value (“XRD and DSC determinations” for short) [1] was “mainly amorphous material”.

For `CN1CC2c3ccccc3Oc3ccc(Cl)cc3C2C1` (stereo not drawn) [Asenapine Maleate], the “XRD and DSC determinations” value [1] was “with largely amorphous material”.

For `COC1=CC(=O)C[C@@H](C)[C@]12Oc1c(Cl)c(OC)cc(OC)c1C2=O` [Control 3, griseofulvin], the “initial concentration and flux compared with unprocessed GF powder” value (Caco-2 monolayers) was “performed similarly to unprocessed GF powder” and the “calculated levels of crystallinity based on DSC” value [2] was 100%.

For `CCC(C)n1ncn(-c2ccc(N3CCN(c4ccc(OCC5COC(Cn6cncn6)(c6ccc(Cl)cc6Cl)O5)cc4)CC3)cc2)c1=O` (stereo not drawn) [Control A1, Itraconazole], the “Neutral Phase Tmax” value ([3]; buffer, after pH transition to 6.8±0.05) was 3.50 h, the “Neutral Phase AUC (SD) (μg · hr/mL)” value ([3]; buffer, after pH transition to 6.8±0.05, up to 300 min) was 0.218 (0.078) μg · hr/mL and the “Neutral Phase Cmax” value ([3]; buffer, after pH transition to 6.8±0.05 with 0.2 M tribasic sodium phosphate) was 0.061 µg/mL. For the same compound, the “Acid Phase C120” value ([3]; itraconazole concentration at 120 minutes in 75 mL 0.1 N HCl pH 1, 6 mg itraconazole equivalent) was 1.50 µg/mL, the “Neutral Phase AUC (SD) (μg · hr/mL)” value [4, 10] was 0.75 (0.221) μg · hr/mL and the “Neutral Phase Cmax” value [4, 10] was 0.291 µg/mL. For the same compound, the “Neutral Phase Tmax” value [4, 10] was 2.25 h, the “Acid Phase C120” value ([4]; itraconazole concentration at 120 minutes in 75 mL FaSSGF, 6 mg itraconazole equivalent) was 0.112 µg/mL and the maximum absorption [5] was 55%. For the same compound, the “assumed solubility in 0.1 N HCl” value [6] was 4 µg/mL, the reported aqueous solubility ([7]; acidic media) was 4 µg/mL and the reported aqueous solubility ([7]; neutral pH) was 0.001 µg/mL. For the same compound, the “log P” value [8] was 6.2, the pKa [8] was 3.7 and the “solubility in FaSSIF medium” value [9] was 0.08 µg/mL (≈ 0.113 µM).

In the case of `O=C(O)Cc1ccccc1Nc1c(Cl)cccc1Cl` [Diclofenac], the “XRD and DSC determinations” value [1] is reported as “XRD and DSC consistent with crystalline”.

In the case of `COc1ccc2c(c1)c(CC(=O)O)c(C)n2C(=O)c1ccc(Cl)cc1` [Indomethacin], the “XRD and DSC determinations” value [1] is reported as “with mainly amorphous material”.
